{
  "source": "patent US11351218B2",
  "about": "“Composition for preventing or treating glioblastoma comprising Platycodon grandiflorum A. De Candolle, Scutellaria baicalensis, Phellodendron amurense Ruprecht or Rubus coreanus” (University-Industry Cooperation Group of Kyung Hee …, priority 2019, dated 2022)",
  "key": {"U87MG and U373MG cells [1]": {"tested_on": "U87MG and U373MG cells", "assay": "Cholesterol measurement (total cholesterol assay kit) in GBM cells", "type": "cell-based, human", "conditions": "PD 10 μM or U18666a 1 μM, 24 hours", "experimental": "(§1) FIGS. 15A and 15B show the results that PD promotes accumulation of cholesterol in lysosomes. Cells were treated with DMSO, PD (10 μM), or U18666a (1 μM) for 24 hours. […] Total cholesterol levels are expressed in cholesterol (μg) per protein (mg) of cell lysate and are shown as means±SD from two independent experiments.\nCells treated as described above were processed using a total cholesterol assay kit (STA384, Cell Biolabs) according to the manufacterer's instructions. Cholesterol esters and free cholesterol were quantified by homogenizing 10^6 cells extracted from a 200 μL mixture of chloroform: isopropanol: NP-40 (7:11:0.1). After centrifugation of the extract at 15,000× g for 10 minutes, the organic phase was collected and evaporated at 50° C. The extract was resuspended in 200 μL of a 1× cholesterol assay diluent prior to analysis. The colorimetric signal was analyzed using an ELISA reader (Versa Max, Molecular Devices, Sunnyvale, Calif., USA) at 540 nm. Cellular cholesterol results were reported as μg of cholesterol per mg of cell protein."}, "cell-surface LDLR [2]": {"tested_on": "cell-surface LDLR", "assay": "Cell surface LDLR analysis by flow cytometry, GBM cells", "type": "cell-based, human", "conditions": "PD 10 μM or U18666a 1 μM, 24 hours", "experimental": "(§2) FIGS. 16A to 16D show the results that PD increases the expression of LDLR on cell surfaces in GBM cells. […] GAPDH was used as a loading control. […] GAPDH was used as a loading control.\n(§3) Cells treated as described in FIG. 16 were separated from plates and resuspended in PBS. After washing with 1% BSA in PBS, the cells were incubated with a primary antibody against human LDLR (Abcam) for 30 minutes. Then, the cells were washed before incubation with an Alexa-Fluor 488-conjugated secondary antibody (Invitrogen) for 30 minutes. The stained cells were washed and resuspended. Fluorescence was analyzed by a FACScalibur flow cytometer (Becton Dickinson, San Jose, Calif., USA) using CellQuest™ software.\n(§4) Brain is the most cholesterol-rich organ of the body, containing about 20% of total body cholesterol. […] As can be confirmed in FIG. 16A, in consistent with these reports, the LDLR protein level was markedly elevated in U87MG and U373MG cells relative to normal human astrocytes. […] Then, the cell surface expression of LDLR was confirmed by flow cytometry."}, "U87MG and U373MG cells [3]": {"tested_on": "U87MG and U373MG cells", "assay": "Cholesterol cell-based detection assay (filipin III staining) in GBM cells", "set-up": "species or system human", "conditions": "PD 10 μM or U18666a 1 μM, 24 hours", "experimental": "as §1\nCells grown on coverslips were treated with the materials. Then, the cells were fixed with 4% PFA at room temperature for 10 minutes. The solution of Filipin III (Cayman) was added for staining of […] cholesterol and the samples were incubated in a dark room for 30 minutes. The images were examined under a Zeiss laser confocal microscope.\nThe present inventors concluded that PD inhibits the maturation of autophagosome into autolysosomes by inhibiting lysosomal degradation and an autophagosome-lysosome fusion in GBM cells. […] To examine whether the defect in the autophagosome-lysosome fusion by PD is due to altered intracellular cholesterol levels, the PD-treated GBM cells were stained with filipin-III, which is a fluorescent dye that binds to cholesterol. […] As can be confirmed in FIG. 14A, this filipin-III staining pattern is very similar to that found in GBM cells treated with U18666A, implying that PD blocks cholesterol release from lysosome and accumulates cholesterol in lysosomes."}, "cell-surface LDLR [4]": {"tested_on": "cell-surface LDLR", "assay": "Cell surface LDLR analysis by flow cytometry, normal astrocytes", "type": "cell-based, human", "conditions": "PD 10 μM or U18666a 1 μM, 24 hours", "experimental": "as §2, §3, §4"}, "[5]": {"tested_on": "p-ULK1 (Ser757), p-S6K (Thr389), p-AKT (Ser473), p-JNK1, Beclin, ATG7", "assay": "Immunoblot of mTOR/MAPK and autophagosome assembly proteins in GBM cells", "type": "cell-based, human", "conditions": "PD 0-10 μM, 24 hours", "experimental": "FIGS. 10A to 10D show the results that PD-mediated autophagy inhibition is independent of mTOR and MAPK signaling pathways. FIGS. 10A to 10C show the results in which cells were treated with PD (0 μM, 0.5 μM, 1 μM, 5 μM, and 10 μM) for 24 hours. The immunoblot analyses for p-ULK1 (Ser757), ULK1, p-S6K (Thr389), p-AKT (Ser473), ERK2, P-ERK, p-JNK1, Beclin, and ATG7 were performed using lysates from GBMs. […] Total protein extracts were analyzed by immunoblot analyses for p-ERK, LC3B, and SQSTM1. GAPDH was used as an internal control.\nCells treated with the concentrations and materials described in FIGS. 1-3B, 7, 8, 10, 13, 16, 18, and 20 were lysed in buffer containing 20 mM Tris-HCl (pH 7.5), 150 mM NaCl, 1 mM EDTA, 1 mM Na2EDTA, 1 mM EGTA, 1% NP-40, 1% sodium deoxycholate, 1 mM Na3VO4, 1 mM MPI, 1 mM PMSF, and PI cocktails for 15 to 20 minutes on ice. Cell lysates were separated by SDS-PAGE and transferred to nitrocellulose membranes. Immunodetection was performed with the following primary antibodies: rabbit anti-LC3B, rabbit anti-cathepsin B, rabbit-anti GAPDH (Cell Signaling Technology, Danvers, Mass.), mouse anti-SQSTM1/p62, and goat anti-cathepsin D (Santa CruzKPL, Gaithersburg, Md., USA) were incubated at room temperature for 1 hour. The protein bands were detected with ECL western Blotting Substrate (Thermo Fisher Scientific, Waltham, Mass., USA).\nPrevious studies have shown that PD enhances autophagy via mTOR/MAPK pathway. In order to analyze the molecular mechanisms of PD-mediated autophagy in GBM cells, several regulatory components for autophagy were examined by immunoblot analysis. It is known that mTORC1 activation, measured by S6K phosphorylation, inhibits autophagy initiation by phosphorylating the ULK1 (Ser 757). […] Furthermore, as can be confirmed in FIG. 10A, altered phosphorylation of AKT, which is a positive regulator of mTORC1, was not observed in these cells. […] In order to assess a role of the ERK phosphorylation in autophagy regulation in PD-treated U373MG cells, PD98059, which is a inhibitor of MEK (i.e., an upstream activator of ERK), was added before PD treatment and the changes in LC3-II and p62 levels were examined by western blotting."}},
  "data": [
    {"smiles": "C[C@@H]1O[C@@H](O[C@H]2[C@H](OC(=O)[C@]34CCC(C)(C)C[C@H]3C3=CC[C@@H]5[C@@]6(C)C[C@H](O)[C@H](O[C@@H]7O[C@H](CO)[C@@H](O)[C@H](O)[C@H]7O)C(CO)(CO)[C@@H]6CC[C@@]5(C)[C@]3(C)C[C@H]4O)OC[C@H](O)[C@@H]2O)[C@H](O)[C@H](O)[C@H]1O[C@@H]1OC[C@@H](O)[C@H](O[C@@H]2OC[C@](O)(CO)[C@H]2O)[C@H]1O", "note": "[PD, platycodin D]", "values": [
      {"measurement": "free cholesterol levels", "setting": "U87MG and U373MG cells [1]", "value": "significant increase"},
      {"measurement": "cell surface expression of LDLR", "setting": "cell-surface LDLR [2]", "value": "shift of the FL-1 histogram peak toward right"},
      {"measurement": "cellular cholesterol distribution (filipin-III staining)", "setting": "U87MG and U373MG cells [3]", "value": "induces cholesterol accumulation within intracellular vesicles"},
      {"measurement": "changes in peak shift (cell surface LDLR)", "setting": "cell-surface LDLR [4]", "value": "very negligible"},
      {"measurement": "altered phosphorylation of AKT", "setting": "[5]", "value": "not observed"},
      {"measurement": "phosphorylation levels of JNK vs control cells", "setting": "[5]", "value": "no significant difference"},
      {"measurement": "phosphorylation of S6K and ULK1", "setting": "[5]", "value": "no alteration"},
      {"measurement": "Beclin-1 and ATG7 protein levels", "setting": "[5]; both cells", "value": "no significant changes"}
    ]}
  ]
}
